US4971965A, “Antibiotics TAN-1057” (Takeda Chemical Industries, Ltd., priority 1988, dated 1990)
Read-outs that look alike come from different tables or passages of the source.

Legend:
[1] = tested on: Bacillus subtilis NIHJ PCI 219; assay: Antibacterial activity (broth dilution MIC, Table 1); assay type: cell-based
Procedure: (§1) The biological activities of TAN-1057 are described as follows.
(§2) (Note 1) Measurement was conducted by employing a medium consisting of
(§3) Bacto Antibiotic Medium 3 (Difco Laboratories, USA)(17.5 g), Bacto yeast
(§4) extract(Difco Laboratories, USA)(5.0 g) and distilled water(pH
(§5) […])(1000 ml), using approximately 10^5 colony forming unit/ml
(§6) of inoculum, by means of the broth dilution method.

[2] = tested on: Salmonella typhimurium IFO 12529; assay: as above; assay type: cell-based; settings: Salmonella enterica
Procedure: as §1, §2, §3, §4, §5, §6

[3] = tested on: Acinetobacter calcoaceticus IFO 13006; assay: as above; assay type: cell-based
Procedure: as §1, §2, §3, §4, §5, §6

[4] = tested on: Pseudomonas aeruginosa IFO 3080; assay: as above; assay type: cell-based
Procedure: as §1, §2, §3, §4, §5, §6

[5] = tested on: Micrococcus luteus IFO 12708; assay: as above; assay type: cell-based
Procedure: as §1, §2, §3, §4, §5, §6

[6] = tested on: Klebsiella pnemoniae IFO 3317; assay: as above; assay type: cell-based
Procedure: as §1, §2, §3, §4, §5, §6

[7] = tested on: Bacillus megaterium IFO 12108; assay: as above; assay type: cell-based; settings: Priestia megaterium
Procedure: as §1, §2, §3, §4, §5, §6

Bacillus cereus FDA 5 = assay: as above; assay type: cell-based
Procedure: as §1, §2, §3, §4, §5, §6

[8] = tested on: Proteus vulgaris IFO 3988; assay: as above; assay type: cell-based
Procedure: as §1, §2, §3, §4, §5, §6

[9] = tested on: Streptococcus faecalis IFO 3989; assay: as above; assay type: cell-based; settings: Enterococcus faecalis
Procedure: as §1, §2, §3, §4, §5, §6

[10] = tested on: Staphylococcus epidermidis IFO 3762; assay: as above; assay type: cell-based
Procedure: as §1, §2, §3, §4, §5, §6

[11] = tested on: Pseudomonas aeruginosa PAO-8; assay: as above; assay type: cell-based
Procedure: as §1, §2, §3, §4, §5, §6

[12] = tested on: Staphylococcus aureus FDA 209P; assay: as above; assay type: cell-based; settings: FDA209P
Procedure: as §1, §2, §3, §4, §5, §6

Aeromonas caviae NCW = assay: as above; assay type: cell-based
Procedure: as §1, §2, §3, §4, §5, §6

Escherichia coli LD-2 = assay: as above; assay type: cell-based
Procedure: as §1, §2, §3, §4, §5, §6

[13] = tested on: Acinetobacter calcoaceticus IFO 12552; assay: as above; assay type: cell-based
Procedure: as §1, §2, §3, §4, §5, §6

[14] = tested on: Escherichia coli NIHJ JC 2; assay: as above; assay type: cell-based
Procedure: as §1, §2, §3, §4, §5, §6

Mycoplasma pulmonis M-53 = assay: MIC against Mycoplasma (Table 3); settings: M53, 120 h
[15] = tested on: Staphylococcus aureus N247; assay: Antibacterial activity against clinically isolated S. aureus (agar dilution MIC, Table 2); assay type: cell-based; settings: Staphylococcus aureus; strain N247; agar dilution; Mueller Hinton medium; 10^6 CFU/ml; read-out: MIC
Procedure: (§7) DMPPC: Methicillin, KM: Kanamycin, GM: Gentamycin, EM: Erythromycin (Note
(§8) Determined by the agar dilution method. Medium: Mueller Hinton medium
(§9) (Difco, USA) Inoculum Size: 10^6 CFU/ml, 37° C.

[16] = tested on: Staphylococcus aureus N237; assay: as above; assay type: cell-based; settings: Staphylococcus aureus; strain N237; agar dilution; Mueller Hinton medium; 10^6 CFU/ml; read-out: MIC
Procedure: as §7, §8, §9

[17] = tested on: Staphylococcus aureus C10; assay: as above; assay type: cell-based; settings: Staphylococcus aureus; strain C10; agar dilution; Mueller Hinton medium; 10^6 CFU/ml; read-out: MIC
Procedure: as §7, §8, §9

[18] = tested on: Staphylococcus aureus N129; assay: as above; assay type: cell-based; settings: Staphylococcus aureus; strain N129; agar dilution; Mueller Hinton medium; 10^6 CFU/ml; read-out: MIC
Procedure: as §7, §8, §9

[19] = tested on: Staphylococcus aureus N176-6; assay: as above; assay type: cell-based; settings: Staphylococcus aureus, N1766; strain N176-6; agar dilution; Mueller Hinton medium; 10^6 CFU/ml; read-out: MIC
Procedure: as §7, §8, §9

[20] = tested on: Staphylococcus aureus N121; assay: as above; assay type: cell-based; settings: Staphylococcus aureus; strain N121; agar dilution; Mueller Hinton medium; 10^6 CFU/ml; read-out: MIC
Procedure: as §7, §8, §9

[21] = tested on: Staphylococcus aureus 308A-1; assay: Therapeutic effect on infectious disease in mice (Table 5); assay type: in vivo
[22] = pH 5, broth dilution, read-out: Minimum Inhibitory Conc. (MIC)
[23] = pH 7, read-out: Minimum Inhibitory Conc. (MIC)
[24] = pH 9, broth dilution, read-out: Minimum Inhibitory Conc. (MIC)

CN(C(=O)C[C@@H](N)CCCNC(=N)N)[C@H]1CNC(NC(N)=O)=NC1=O [TAN-1057A]
~1 mg/kg: ED50 ([21]; 308A1, ip infection, Oral)
~0.1 mg/kg: ED50 ([21]; 308A1, sc, ip infection, Subcutaneous)
3.13 µg/mL: MIC (Bacillus cereus FDA 5; FDA5, pH 9, read-out: Minimum Inhibitory Conc. (MIC)) | MIC ([9]; IFO3989, pH 9, read-out: Minimum Inhibitory Conc. (MIC)) | MIC [12, 23]
100 µg/mL: MIC ([4]; IFO3080, pH 9, read-out: Minimum Inhibitory Conc. (MIC)) | MIC ([6]; IFO3317, pH 9, read-out: Minimum Inhibitory Conc. (MIC)) | MIC ([11]; PAO8, pH 5, read-out: Minimum Inhibitory Conc. (MIC)) | MIC ([11]; PAO8, pH 9, read-out: Minimum Inhibitory Conc. (MIC)) | MIC (Aeromonas caviae NCW; [22]) | MIC (Escherichia coli LD-2; LD2, pH 5, read-out: Minimum Inhibitory Conc. (MIC))
6.25 µg/mL: MIC ([3]; IFO13006, pH 7, read-out: Minimum Inhibitory Conc. (MIC)) | MIC (Bacillus cereus FDA 5; FDA5, pH 5, read-out: Minimum Inhibitory Conc. (MIC)) | MIC (Aeromonas caviae NCW; [23]) | MIC ([13]; IFO12552, pH 7, read-out: Minimum Inhibitory Conc. (MIC))
12.5 µg/mL: MIC [1, 23] | MIC ([7]; IFO12108, pH 7, read-out: Minimum Inhibitory Conc. (MIC)) | MIC ([9]; IFO3989, pH 7, read-out: Minimum Inhibitory Conc. (MIC)) | MIC ([13]; IFO12552, pH 5, read-out: Minimum Inhibitory Conc. (MIC))
50 µg/mL: MIC [1, 22] | MIC ([8]; IFO3988, pH 9, read-out: Minimum Inhibitory Conc. (MIC))
> 100 µg/mL: MIC ([2]; pH 5, read-out: Minimum Inhibitory Conc. (MIC)) | MIC [2, 23] | MIC ([4]; IFO3080, pH 5, read-out: Minimum Inhibitory Conc. (MIC)) | MIC ([4]; IFO3080, pH 7, read-out: Minimum Inhibitory Conc. (MIC)) | MIC ([6]; IFO3317, pH 5, read-out: Minimum Inhibitory Conc. (MIC)) | MIC ([6]; IFO3317, pH 7, read-out: Minimum Inhibitory Conc. (MIC)) | MIC ([8]; IFO3988, pH 5, read-out: Minimum Inhibitory Conc. (MIC)) | MIC ([8]; IFO3988, pH 7, read-out: Minimum Inhibitory Conc. (MIC)) | MIC ([9]; IFO3989, pH 5, broth dilution, read-out: Minimum Inhibitory Conc. (MIC)) | MIC ([10]; IFO3762, pH 5, read-out: Minimum Inhibitory Conc. (MIC)) | MIC ([11]; PAO8, pH 7, read-out: Minimum Inhibitory Conc. (MIC)) | MIC ([14]; NIHJJC2, pH 5, read-out: Minimum Inhibitory Conc. (MIC)) | MIC ([14]; NIHJJC2, pH 7, read-out: Minimum Inhibitory Conc. (MIC))
0.2 µg/mL: MIC ([5]; IFO12708, pH 9, read-out: Minimum Inhibitory Conc. (MIC))
1.56 µg/mL: MIC [1, 24] | MIC ([3]; IFO13006, pH 5, broth dilution, read-out: Minimum Inhibitory Conc. (MIC)) | MIC ([3]; IFO13006, pH 9, broth dilution, read-out: Minimum Inhibitory Conc. (MIC)) | MIC ([5]; IFO12708, pH 7, read-out: Minimum Inhibitory Conc. (MIC)) | MIC ([7]; IFO12108, pH 9, broth dilution, read-out: Minimum Inhibitory Conc. (MIC)) | MIC ([10]; IFO3762, pH 7, read-out: Minimum Inhibitory Conc. (MIC)) | MIC (Aeromonas caviae NCW; [24]) | MIC (Escherichia coli LD-2; LD2, pH 9, read-out: Minimum Inhibitory Conc. (MIC)) | MIC ([13]; IFO12552, pH 9, broth dilution, read-out: Minimum Inhibitory Conc. (MIC)) | MIC [15]
0.39 µg/mL: MIC (Mycoplasma pulmonis M-53) | MIC [18]
25 µg/mL: MIC ([2]; pH 9, read-out: Minimum Inhibitory Conc. (MIC)) | MIC ([7]; IFO12108, pH 5, broth dilution, read-out: Minimum Inhibitory Conc. (MIC)) | MIC (Bacillus cereus FDA 5; FDA5, pH 7, broth dilution, read-out: Minimum Inhibitory Conc. (MIC)) | MIC (Escherichia coli LD-2; LD2, pH 7, read-out: Minimum Inhibitory Conc. (MIC)) | MIC ([14]; NIHJJC2, pH 9, read-out: Minimum Inhibitory Conc. (MIC))
< 0.1 µg/mL: MIC ([10]; IFO3762, pH 9, read-out: Minimum Inhibitory Conc. (MIC)) | MIC [12, 24]
0.78 µg/mL: MIC [16] | MIC [17] | MIC [19] | MIC [20]
